Results from the NIST ThermoML archive (doi:10.1016/j.jct.2009.01.014).
Values joined by “and” are separate entries in the source; they are usually repeats but may differ in a detail not shown here. Equal values may be shown once. ± gives the expanded uncertainty stated by the source.

Assay: molar heat capacity at constant pressure
Conditions: 101.33 kPa, Vacuum adiabatic calorimetry

[Al+3].[Al+3].[Co+2].[O-2].[O-2].[O-2].[O-2] [aluminium cobalt oxide]
Conditions | molar heat capacity at constant pressure
4.72 K, Crystal 2 | 0.13 ± 0.08 J/K/mol
5 K, Crystal 2 | 0.187 ± 0.11 J/K/mol
5.71 K, Crystal 2 | 0.32 ± 0.19 J/K/mol
6 K, Crystal 2 | 0.323 ± 0.19 J/K/mol
6.45 K, Crystal 2 | 0.6 ± 0.36 J/K/mol
6.71 K, Crystal 2 | 0.26 ± 0.16 J/K/mol
6.88 K, Crystal 2 | 0.73 ± 0.44 J/K/mol
7 K, Crystal 2 | 0.905 ± 0.54 J/K/mol
7.21 K, Crystal 2 | 0.74 ± 0.61 J/K/mol
7.25 K, Crystal 2 | 1.59 ± 1 J/K/mol
7.46 K, Crystal 2 | 0.83 ± 0.5 J/K/mol
7.65 K, Crystal 2 | 2.56 ± 3.5 J/K/mol
7.66 K, Crystal 2 | 0.96 J/K/mol
7.81 K, Crystal 2 | 1.14 ± 0.68 J/K/mol
7.85 K, Crystal 2 | 0.98 ± 0.59 J/K/mol
7.94 K, Crystal 2 | 1.38 ± 0.9 J/K/mol
8 K, Crystal 2 | 3.8 ± 2.3 J/K/mol and 2.02 ± 1.2 J/K/mol
8.05 K, Crystal 2 | 1.67 ± 1 J/K/mol
8.17 K, Crystal 2 | 2 ± 1.2 J/K/mol
8.29 K, Crystal 2 | 2.32 ± 1.4 J/K/mol
8.32 K, Crystal 2 | 6.21 ± 4.5 J/K/mol
8.47 K, Crystal 2 | 1.8 ± 1.1 J/K/mol
8.62 K, Crystal 2 | 3.37 ± 2.1 J/K/mol
8.66 K, Crystal 2 | 6.33 ± 3.8 J/K/mol
8.71 K, Crystal 2 | 5.19 ± 3.1 J/K/mol and 7.23 ± 4.3 J/K/mol
8.98 K, Crystal 2 | 3.72 ± 2.2 J/K/mol
9.28 K, Crystal 1 | 4.54 ± 0.27 J/K/mol
9.32 K, Crystal 1 | 4.26 ± 0.26 J/K/mol
9.33 K, Crystal 1 | 3.86 ± 0.23 J/K/mol
9.95 K, Crystal 1 | 4.26 ± 0.26 J/K/mol
10 K, Crystal 1 | 4.27 ± 0.26 J/K/mol
10.45 K, Crystal 1 | 4.03 ± 0.24 J/K/mol
10.5 K, Crystal 1 | 4.18 ± 0.25 J/K/mol
10.76 K, Crystal 1 | 4.31 ± 0.26 J/K/mol
11.38 K, Crystal 1 | 4.5 ± 0.27 J/K/mol
11.87 K, Crystal 1 | 4.28 ± 0.26 J/K/mol
12.04 K, Crystal 1 | 4.33 ± 0.26 J/K/mol
12.41 K, Crystal 1 | 4.39 ± 0.27 J/K/mol
12.96 K, Crystal 1 | 4.32 ± 0.26 J/K/mol
13.36 K, Crystal 1 | 4.4 ± 0.27 J/K/mol
13.69 K, Crystal 1 | 4.41 ± 0.27 J/K/mol
13.73 K, Crystal 1 | 4.37 ± 0.26 J/K/mol
14.57 K, Crystal 1 | 4.32 ± 0.26 J/K/mol
14.84 K, Crystal 1 | 4.36 ± 0.26 J/K/mol
15 K, Crystal 1 | 4.19 ± 0.25 J/K/mol
15.02 K, Crystal 1 | 4.19 ± 0.25 J/K/mol
15.35 K, Crystal 1 | 4.45 ± 0.27 J/K/mol
16.08 K, Crystal 1 | 4.3 ± 0.26 J/K/mol
16.27 K, Crystal 1 | 4.22 ± 0.25 J/K/mol
16.99 K, Crystal 1 | 4.37 ± 0.26 J/K/mol
17.59 K, Crystal 1 | 4.22 ± 0.25 J/K/mol
17.64 K, Crystal 1 | 4.2 ± 0.25 J/K/mol
18.61 K, Crystal 1 | 4.3 ± 0.26 J/K/mol
18.8 K, Crystal 1 | 4.15 ± 0.25 J/K/mol
19.9 K, Crystal 1 | 4.28 ± 0.26 J/K/mol
20 K, Crystal 1 | 4.12 ± 0.25 J/K/mol
20.2 K, Crystal 1 | 4.24 ± 0.26 J/K/mol
20.34 K, Crystal 1 | 4.12 ± 0.25 J/K/mol
20.92 K, Crystal 1 | 4.12 ± 0.25 J/K/mol
21.76 K, Crystal 1 | 4.2 ± 0.25 J/K/mol
21.88 K, Crystal 1 | 4.24 ± 0.26 J/K/mol
22.65 K, Crystal 1 | 4.13 ± 0.25 J/K/mol
23.29 K, Crystal 1 | 4.19 ± 0.25 J/K/mol
24.79 K, Crystal 1 | 4.18 ± 0.25 J/K/mol
24.8 K, Crystal 1 | 4.22 ± 0.25 J/K/mol
25 K, Crystal 1 | 4.19 ± 0.25 J/K/mol
26.22 K, Crystal 1 | 4.35 ± 0.26 J/K/mol
26.96 K, Crystal 1 | 4.24 ± 0.26 J/K/mol
27.5 K, Crystal 1 | 4.17 ± 0.25 J/K/mol
28.68 K, Crystal 1 | 4.27 ± 0.26 J/K/mol
29.17 K, Crystal 1 | 4.26 ± 0.26 J/K/mol
29.76 K, Crystal 1 | 4.34 ± 0.26 J/K/mol
30 K, Crystal 1 | 4.35 ± 0.26 J/K/mol
31.39 K, Crystal 1 | 4.52 ± 0.1 J/K/mol
31.42 K, Crystal 1 | 4.55 ± 0.1 J/K/mol
33.59 K, Crystal 1 | 4.79 ± 0.1 J/K/mol
34.14 K, Crystal 1 | 4.77 ± 0.1 J/K/mol
35 K, Crystal 1 | 4.98 ± 0.11 J/K/mol
35.82 K, Crystal 1 | 5.1 ± 0.11 J/K/mol
36.43 K, Crystal 1 | 5.08 ± 0.11 J/K/mol
38.1 K, Crystal 1 | 5.31 ± 0.11 J/K/mol
38.48 K, Crystal 1 | 5.3 ± 0.11 J/K/mol
40 K, Crystal 1 | 5.71 ± 0.12 J/K/mol
40.31 K, Crystal 1 | 5.7 ± 0.12 J/K/mol
40.44 K, Crystal 1 | 5.8 ± 0.12 J/K/mol
42.02 K, Crystal 1 | 6.02 ± 0.13 J/K/mol
42.79 K, Crystal 1 | 6.32 ± 0.13 J/K/mol
43.71 K, Crystal 1 | 6.48 ± 0.14 J/K/mol
45 K, Crystal 1 | 6.87 ± 0.14 J/K/mol
45.17 K, Crystal 1 | 6.92 ± 0.14 J/K/mol
45.43 K, Crystal 1 | 6.93 ± 0.14 J/K/mol
47.17 K, Crystal 1 | 7.42 ± 0.15 J/K/mol
47.58 K, Crystal 1 | 7.59 ± 0.16 J/K/mol
48.91 K, Crystal 1 | 7.98 ± 0.16 J/K/mol
50 K, Crystal 1 | 8.31 ± 0.17 J/K/mol
50.03 K, Crystal 1 | 8.32 ± 0.05 J/K/mol
50.67 K, Crystal 1 | 8.52 ± 0.05 J/K/mol
52.44 K, Crystal 1 | 9.07 ± 0.06 J/K/mol
52.51 K, Crystal 1 | 9.11 ± 0.06 J/K/mol
54.22 K, Crystal 1 | 9.63 ± 0.06 J/K/mol
55 K, Crystal 1 | 9.96 ± 0.06 J/K/mol
55.03 K, Crystal 1 | 9.97 ± 0.06 J/K/mol
56.02 K, Crystal 1 | 10.33 ± 0.06 J/K/mol
57.57 K, Crystal 1 | 10.87 ± 0.06 J/K/mol
57.82 K, Crystal 1 | 10.96 ± 0.06 J/K/mol
59.64 K, Crystal 1 | 11.67 ± 0.07 J/K/mol
60 K, Crystal 1 | 11.79 ± 0.07 J/K/mol
60.15 K, Crystal 1 | 11.85 ± 0.07 J/K/mol
61.46 K, Crystal 1 | 12.35 ± 0.07 J/K/mol
62.75 K, Crystal 1 | 12.88 ± 0.07 J/K/mol
63.3 K, Crystal 1 | 13.11 ± 0.07 J/K/mol
65 K, Crystal 1 | 13.79 ± 0.07 J/K/mol
65.14 K, Crystal 1 | 13.85 ± 0.07 J/K/mol
65.38 K, Crystal 1 | 13.94 ± 0.07 J/K/mol
66.99 K, Crystal 1 | 14.6 ± 0.08 J/K/mol
68.03 K, Crystal 1 | 15.06 ± 0.08 J/K/mol
68.85 K, Crystal 1 | 15.41 ± 0.08 J/K/mol
70 K, Crystal 1 | 15.92 ± 0.08 J/K/mol
70.7 K, Crystal 1 | 16.23 ± 0.08 J/K/mol
70.71 K, Crystal 1 | 16.22 ± 0.08 J/K/mol
72.59 K, Crystal 1 | 17.07 ± 0.09 J/K/mol
73.39 K, Crystal 1 | 17.44 ± 0.09 J/K/mol
74.46 K, Crystal 1 | 17.93 ± 0.09 J/K/mol
75 K, Crystal 1 | 18.18 ± 0.09 J/K/mol
76.1 K, Crystal 1 | 18.69 ± 0.09 J/K/mol
76.35 K, Crystal 1 | 18.81 ± 0.09 J/K/mol
78.23 K, Crystal 1 | 19.67 ± 0.1 J/K/mol
78.83 K, Crystal 1 | 19.98 ± 0.1 J/K/mol
80 K, Crystal 1 | 20.58 ± 0.83 J/K/mol
80.13 K, Crystal 1 | 20.6 ± 0.1 J/K/mol
81.57 K, Crystal 1 | 21.31 ± 0.1 J/K/mol
82.03 K, Crystal 1 | 21.53 ± 0.1 J/K/mol
83.93 K, Crystal 1 | 22.47 ± 0.11 J/K/mol
84.33 K, Crystal 1 | 22.66 ± 0.11 J/K/mol
85 K, Crystal 1 | 23 ± 0.11 J/K/mol
85.84 K, Crystal 1 | 23.42 ± 0.11 J/K/mol
86.76 K, Crystal 1 | 23.89 ± 0.11 J/K/mol
87.1 K, Crystal 1 | 24.07 ± 0.12 J/K/mol
87.75 K, Crystal 1 | 24.35 ± 0.12 J/K/mol
89.66 K, Crystal 1 | 25.35 ± 0.12 J/K/mol
89.88 K, Crystal 1 | 25.48 ± 0.12 J/K/mol
90 K, Crystal 1 | 25.54 ± 0.19 J/K/mol
90.38 K, Crystal 1 | 25.72 ± 0.19 J/K/mol
91.58 K, Crystal 1 | 26.35 ± 0.19 J/K/mol
92.68 K, Crystal 1 | 26.93 ± 0.19 J/K/mol
93.5 K, Crystal 1 | 27.35 ± 0.19 J/K/mol
94.03 K, Crystal 1 | 27.61 ± 0.2 J/K/mol
95 K, Crystal 1 | 28.14 ± 0.2 J/K/mol
95.42 K, Crystal 1 | 28.36 ± 0.2 J/K/mol
95.49 K, Crystal 1 | 28.4 ± 0.2 J/K/mol
97.35 K, Crystal 1 | 29.35 ± 0.2 J/K/mol
97.7 K, Crystal 1 | 29.56 ± 0.2 J/K/mol
98.31 K, Crystal 1 | 29.91 ± 0.2 J/K/mol
99.28 K, Crystal 1 | 30.41 ± 0.2 J/K/mol
100 K, Crystal 1 | 30.76 ± 0.2 J/K/mol
101.14 K, Crystal 1 | 31.29 ± 0.21 J/K/mol
101.4 K, Crystal 1 | 31.39 ± 0.21 J/K/mol
105 K, Crystal 1 | 33.58 ± 0.21 J/K/mol
105.11 K, Crystal 1 | 33.64 ± 0.21 J/K/mol
108.84 K, Crystal 1 | 35.84 ± 0.22 J/K/mol
110 K, Crystal 1 | 36.47 ± 0.22 J/K/mol
112.59 K, Crystal 1 | 37.85 ± 0.23 J/K/mol
116.35 K, Crystal 1 | 39.89 ± 0.23 J/K/mol
118.19 K, Crystal 1 | 40.87 ± 0.24 J/K/mol
120 K, Crystal 1 | 41.53 ± 0.24 J/K/mol
120.13 K, Crystal 1 | 41.61 ± 0.24 J/K/mol
121.04 K, Crystal 1 | 42.24 ± 0.24 J/K/mol
123.91 K, Crystal 1 | 44.18 ± 0.25 J/K/mol and 44.16 ± 0.25 J/K/mol
126.79 K, Crystal 1 | 45.8 ± 0.25 J/K/mol
127.71 K, Crystal 1 | 46.35 ± 0.25 J/K/mol
129.67 K, Crystal 1 | 47.46 ± 0.26 J/K/mol
130 K, Crystal 1 | 47.65 ± 0.26 J/K/mol
131.52 K, Crystal 1 | 48.53 ± 0.26 J/K/mol
132.55 K, Crystal 1 | 49.08 ± 0.26 J/K/mol
135.33 K, Crystal 1 | 50.7 ± 0.27 J/K/mol
135.44 K, Crystal 1 | 50.72 ± 0.27 J/K/mol
138.34 K, Crystal 1 | 52.33 ± 0.28 J/K/mol
139.16 K, Crystal 1 | 52.77 ± 0.28 J/K/mol
140 K, Crystal 1 | 53.26 ± 0.28 J/K/mol
141.23 K, Crystal 1 | 53.98 ± 0.28 J/K/mol
142.99 K, Crystal 1 | 55.02 ± 0.28 J/K/mol
144.14 K, Crystal 1 | 55.61 ± 0.29 J/K/mol
